Measured values taken from patent publication US7855166B2, “Sulfonylamino(thio)carbonyl compounds” (Bayer Cropscience GmbH, priority 2005, dated 2010).

Key:
[1] = system: weed plants such as Sinapis alba, Echinochloa crus-galli, Lolium multiflorum, Chrysanthemum segetum, Setaria viridis, Abutilon theophrasti, Amaranthus …; experiment: Post-emergence effect on weeds (greenhouse pot test, visual scoring); assay type: in vivo; details: applied post-emergence (three-leaf stage) at a rate of 0.3 kg or less of active substance per hectare; scored after about 3 to 4 weeks in comparison to untreated controls
[2] = system: weed plants such as Sinapis alba, Chrysanthemum segetum, Avena sativa, Stellaria media, Echinochloa crus-galli, Lolium multiflorum, Setaria viridis, Abutilon …; experiment: Pre-emergence effect on weeds (greenhouse pot test, visual scoring); assay type: in vivo; details: applied pre-emergence at a rate of 0.3 kg or less of active substance per hectare; scored after 3 to 4 weeks in comparison to untreated controls

Compound | herbicidal action against weed plants (effect scored visually) [1] | herbicidal action against weed plants (visual scoring of plant damage or emergence damage) [2]
COc1nn(C(=O)NS(=O)(=O)c2ccccc2I)c(=O)n1C [Compound 1.001] | very good herbicidal action | very good herbidical action
CCOc1nn(C(=O)NS(=O)(=O)c2ccccc2I)c(=O)n1C [Compound 1.004] | very good herbicidal action | very good herbidical action
CCCOc1nn(C(=O)NS(=O)(=O)c2ccccc2I)c(=O)n1C [Compound 1.005] | very good herbicidal action | very good herbidical action
COc1nn(C(=O)NS(=O)(=O)c2ccccc2I)c(=O)n1C1CC1 [Compound 1.008] | very good herbicidal action | very good herbidical action
CCOc1nn(C(=O)NS(=O)(=O)c2ccccc2I)c(=O)n1C1CC1 [Compound 1.011] | very good herbicidal action | very good herbidical action
CCCOc1nn(C(=O)NS(=O)(=O)c2ccccc2I)c(=O)n1C1CC1 [Compound 1.014] | very good herbicidal action | very good herbidical action
COc1nn(C(=O)NS(=O)(=O)c2c(F)cccc2I)c(=O)n1C [Compound 1.021] | very good herbicidal action | very good herbidical action
CCOc1nn(C(=O)NS(=O)(=O)c2c(F)cccc2I)c(=O)n1C [Compound 1.022] | very good herbicidal action | very good herbidical action
CCCOc1nn(C(=O)NS(=O)(=O)c2c(F)cccc2I)c(=O)n1C [Compound 1.023] | very good herbicidal action | very good herbidical action
CC(C)Oc1nn(C(=O)NS(=O)(=O)c2c(F)cccc2I)c(=O)n1C [Compound 1.024] | very good herbicidal action | very good herbidical action
CCOc1nn(C(=O)NS(=O)(=O)c2c(F)cccc2I)c(=O)n1C1CC1 [Compound 1.027] | very good herbicidal action | very good herbidical action
CCCOc1nn(C(=O)NS(=O)(=O)c2c(F)cccc2I)c(=O)n1C1CC1 [Compound 1.028] | very good herbicidal action | very good herbidical action
COc1nn(C(=O)NS(=O)(=O)c2c(C)cccc2I)c(=O)n1C [Compound 1.037] | very good herbicidal action | very good herbidical action
CCOc1nn(C(=O)NS(=O)(=O)c2c(C)cccc2I)c(=O)n1C [Compound 1.038] | very good herbicidal action | very good herbidical action
CCCOc1nn(C(=O)NS(=O)(=O)c2c(C)cccc2I)c(=O)n1C [Compound 1.039] | very good herbicidal action | very good herbidical action
Cc1cccc(I)c1S(=O)(=O)NC(=O)n1nc(OC(C)C)n(C)c1=O [Compound 1.040] | very good herbicidal action | very good herbidical action
COc1nn(C(=O)NS(=O)(=O)c2c(C)cccc2I)c(=O)n1C1CC1 [Compound 1.042] | very good herbicidal action | very good herbidical action
CCCOc1nn(C(=O)NS(=O)(=O)c2c(C)cccc2I)c(=O)n1C1CC1 [Compound 1.044] | very good herbicidal action | very good herbidical action
COc1nn(C(=O)NS(=O)(=O)c2c(I)cccc2C(F)(F)F)c(=O)n1C [Compound 1.133] | very good herbicidal action | very good herbidical action
CCOc1nn(C(=O)NS(=O)(=O)c2c(I)cccc2C(F)(F)F)c(=O)n1C [Compound 1.136] | very good herbicidal action | very good herbidical action

Compound | herbicidal action against weed plants (effect scored visually) [1] | herbicidal action against weed plants (visual scoring of plant damage or emergence damage) [2]
CCCOc1nn(C(=O)NS(=O)(=O)c2c(I)cccc2C(F)(F)F)c(=O)n1C [Compound 1.137] | very good herbicidal action | very good herbidical action
CC(C)Oc1nn(C(=O)NS(=O)(=O)c2c(I)cccc2C(F)(F)F)c(=O)n1C [Compound 1.138] | very good herbicidal action | very good herbidical action
COc1nn(C(=O)NS(=O)(=O)c2c(I)cccc2C(F)(F)F)c(=O)n1C1CC1 [Compound 1.140] | very good herbicidal action | very good herbidical action
CCOc1nn(C(=O)NS(=O)(=O)c2c(I)cccc2C(F)(F)F)c(=O)n1C1CC1 [Compound 1.143] | very good herbicidal action | very good herbidical action
CCOc1nn(C(=O)NS(=O)(=O)c2c(I)cccc2OC)c(=O)n1C1CC1 [Compound 1.191, 4-Cyclopropyl-3-ethoxy-N-[(2-iodo-6-methoxyphenyl)sulfonyl]-5-oxo-4,5-dihydro-1H-1,2,4-triazole-1-carboxamide] | very good herbicidal action | very good herbidical action
CCOc1nn(C(=O)NS(=O)(=O)c2c(I)cccc2OC)c(=O)n1C [Compound 1.194] | very good herbicidal action | very good herbidical action
CCCOc1nn(C(=O)NS(=O)(=O)c2c(I)cccc2OC)c(=O)n1C [Compound 1.195] | very good herbicidal action | very good herbidical action
COc1cccc(I)c1S(=O)(=O)NC(=O)n1nc(OC(C)C)n(C)c1=O [Compound 1.196] | very good herbicidal action | very good herbidical action
CCSc1nn(C(=O)NS(=O)(=O)c2c(I)cccc2OC)c(=O)n1C [Compound 1.197] | very good herbicidal action | very good herbidical action
COc1cccc(I)c1S(=O)(=O)NC(=O)n1nc(OC)n(C2CC2)c1=O [Compound 1.198] | very good herbicidal action | very good herbidical action
CCCOc1nn(C(=O)NS(=O)(=O)c2c(I)cccc2OC)c(=O)n1C1CC1 [Compound 1.204] | very good herbicidal action | very good herbidical action
CCOc1cccc(I)c1S(=O)(=O)NC(=O)n1nc(OC)n(C)c1=O [Compound 1.211] | very good herbicidal action | very good herbidical action
CCOc1cccc(I)c1S(=O)(=O)NC(=O)n1nc(OCC)n(C)c1=O [Compound 1.214] | very good herbicidal action | very good herbidical action
CCCOc1nn(C(=O)NS(=O)(=O)c2c(I)cccc2OCC)c(=O)n1C [Compound 1.215] | very good herbicidal action | very good herbidical action
CCOc1cccc(I)c1S(=O)(=O)NC(=O)n1nc(OC)n(C2CC2)c1=O [Compound 1.218] | very good herbicidal action | very good herbidical action
CCOc1cccc(I)c1S(=O)(=O)NC(=O)n1nc(OCC)n(C2CC2)c1=O [Compound 1.221] | very good herbicidal action | very good herbidical action
CCCOc1cccc(I)c1S(=O)(=O)NC(=O)n1nc(OC)n(C)c1=O [Compound 1.231] | very good herbicidal action | very good herbidical action
CCCOc1cccc(I)c1S(=O)(=O)NC(=O)n1nc(OCCC)n(C)c1=O [Compound 1.235] | very good herbicidal action | very good herbidical action
CCCOc1cccc(I)c1S(=O)(=O)NC(=O)n1nc(OC(C)C)n(C)c1=O [Compound 1.236] | very good herbicidal action | very good herbidical action
